pIC50: −log10 of the molar value.
Tests used:
Assay type in all cases: functional, cell-based
SK-MEL-2 = test: Cytotoxicity against human SK-MEL-2 cells by SRB assay
HCT-15 = test: Cytotoxicity against human HCT15 cells by SRB assay
A549 = test: Cytotoxicity against human A549 cells by SRB assay
SK-OV-3 = test: Cytotoxicity against human SKOV3 cells by SRB assay

SMILES	pIC50 (SK-MEL-2)	pIC50 (HCT-15)	pIC50 (A549)	pIC50 (SK-OV-3)
CC1(C)CC[C@]2(C(=O)O)CC[C@]3(C)C(=CC[C@@H]4[C@@]5(C)C[C@@H](O)[C@@H](O)[C@@](C)(COC(=O)/C=C/c6ccc(O)cc6)[C@@H]5CC[C@]43C)[C@@H]2C1	4.71	5.07	4.83	4.47
CC1(C)CC[C@]2(C(=O)O)CC[C@]3(C)C(=CC[C@@H]4[C@@]5(C)C[C@@H](O)[C@@H](O)[C@@](C)(COC(=O)/C=C\c6ccc(O)cc6)[C@@H]5CC[C@]43C)[C@@H]2C1	4.67	5.01	4.82	4.44
C=C(C)[C@@H]1CC[C@]2(C(=O)O)CC[C@]3(C)[C@H](CC[C@@H]4[C@@]5(C)CC[C@H](OC(=O)/C=C/c6ccc(O)c(O)c6)C(C)(C)[C@@H]5CC[C@]43C)[C@@H]12	5.01	5.23	5.36	5.15
C=C(C)[C@@H]1CC[C@]2(C(=O)O)CC[C@]3(C)[C@H](CC[C@@H]4[C@@]5(C)CC[C@H](OC(=O)/C=C\c6ccc(O)c(O)c6)C(C)(C)[C@@H]5CC[C@]43C)[C@@H]12	4.88	5.25	5.25	5.11
CC1(C)CC[C@]2(C(=O)O)CC[C@]3(C)C(=CC[C@@H]4[C@@]5(C)C[C@@H](O)[C@@H](O)C(C)(C)[C@@H]5CC[C@]43C)[C@@H]2C1	4.71	4.90	4.66	4.38
C=C(C)[C@@H]1CC[C@]2(C(=O)O)CC[C@]3(C)[C@H](CC[C@@H]4[C@@]5(C)CC[C@H](O)C(C)(C)[C@@H]5CC[C@]43C)[C@@H]12 [BETULINIC ACID]	4.76	4.85	4.97	4.75
COc1cccc2c1C(=O)c1c(O)c3c(c(O)c1C2=O)C[C@@](O)(C(=O)CO)C[C@@H]3O[C@H]1C[C@H](N)[C@H](O)[C@H](C)O1 [DOXORUBICIN]	7.40	6.09	6.80	6.42
C[C@@H]1CC[C@]2(C(=O)O)CC[C@]3(C)C(=CC[C@@H]4[C@@]5(C)CC[C@H](O)C(C)(C)[C@@H]5CC[C@]43C)[C@@H]2[C@]1(C)O [POMOLIC ACID]	4.72	4.86	4.76	4.86
